Test results: patent US11253526B2, “Nanostructured formulations for the delivery of silibinin and other active ingredients for treating ocular diseases” (DISTRETTO TECNOLOGICO SICILIA MICRO E NANO SISTEMI …, priority 2014, dated 2022)
“And” between values parts separate entries of the source, which are not always exact repeats. Equal values may be shown once.

Key:
cyclooxygenase 2 (COX-2) = test: Western blot, COX-2 level in LPS-stimulated J774 cells; format: cell-based; settings: LPS 10 μg/mL for 24 hours, pre-treatment
Experimental: (§1) In particular, J774 cells were stimulated with lipopolysaccharide (LPS) at a concentration of 10 μg/mL for 24 hours, stimulation with LPS induces the activation of inflammatory processes such as NFκB nuclear translocation and cytokine production, if not also release of nitrites and nitrosative stress. The cell viability was then evaluated following stimulation with LPS (10 μg/mL for 24 hours) and 2-hour pretreatment of the delivery systems being studied at the different concentrations. […] The anti-inflammatory activity of the delivery systems was then evaluated through the Western Blot analysis. […] The NFκB activation involves the production of proteins and inflammatory mediators such as cyclooxygenase 2 (COX-2) and inducible nitric oxide synthase (iNOS) and consequent increase in the production of nitrites.

[1] = Zeta potential measurement; format: physicochemical; settings: in PBS, pH 7.4; calixarene nanoaggregates
Experimental: The zeta potential was measured according to the principles of the laser doppler velocimetry and of the light scattering analysis (M3-PALS technique) using a Zetasizer Nano ZSP (Malvern) with a He—Ne laser, power=4.0 mW, wavelength=633 nm.
(§2) The size distribution of micelles was determined through dynamic light scattering measurements using the Malvern Zetasizer Nano ZS. […] The aqueous solutions of micelles (2 mg/mL) were analyzed after filtration through cellulose membrane filters with 5 μm cut off. The average hydrodynamic diameter and the polydispersity index (PDI) were obtained using cumulative analyses of the correlation function. The zeta potential (mV) was calculated by the electrophoretic mobility and using the Smoluchowsky relation, assuming that K·a>>1 (where K and a are the Debye-Hückel parameter and the particle radius, respectively).
(§3) The average diameter, polydispersity index (PDI) and zeta potential of calixarene nanoparticles loaded and not with silibinin were measured using a Zetasizer Nano ZS-90 (Malvern Instrument), the reading was made at an angle of 90° with respect to the incident ray and analyzed in triplicate.

ARPE-19 retinal cells = test: Biocompatibility / toxicity on ARPE-19 retinal cells; format: cell-based
Experimental: (§4) Then, the effects of the conjugated and empty system were tested using the compound FeSO4 as oxidative insult, with changes in the cellular redox status. Over 24 hours of incubation, the cells are pre-treated for 20 h and then exposed to insult with 50 μM FeSO4 for three hours [“Pretreatment” 20 h drug+3 h insult]. The viability test conducted to evaluate the toxicity and the ability of protection from damage of the carrier in question is to assess the release of LDH in the culture medium. […] In subsequent experiments, the effects of post-treatment with calixarene based compounds were tested. Therefore, cells were treated with 50 μM FeSO4 for 5 hours and incubated for 20 hours with the various compounds.
(§5) The colloidal solutions of calixarene 1, calixarene loaded with active ingredient and active ingredient alone were tested for cytotoxicity: SIRC corneal cells (FIG. 11), J774 macrophages (FIG. 12) and ARPE retinal cells.

ARPE-19 cells [2] = test: LDH release, 20 h pretreatment then 50 μM FeSO4 insult; format: cell-based
Experimental: as §4

[3] = tested on: inducible nitric oxide synthase (iNOS); test: Western blot, iNOS level in LPS-stimulated J774 cells; format: cell-based; settings: LPS 10 μg/mL for 24 hours, pre-treatment
Experimental: as §1

cathepsin D = test: Western blot of cathepsin D after FeSO4 insult and post-treatment; format: cell-based
Description: Cathepsin D is an intracellular aspartyl protease, synthesized in the endoplasmic reticulum as pre-pro-enzyme that is processed up to generate active fragments. According to the cellular environment in which it resides, it can induce or inhibit apoptosis through different mechanisms. The 48 kDa fragment is an active intermediate form from which two additional active fragments are generated; therefore, its reduction is associated with the activation of the proteolytic process, vice versa its increase is indicative of an inhibition of apoptosis. In the presence of oxidative stress, the activation of cathepsin D may activate caspase 8 which in turn activates caspase 3, leading to cell death (Regulatory role of cathepsin D in apoptosis, A. Minarowska et al., (2007) Folia Histochemica et Cytobiologica) (Caspase-8-mediated apoptosis induced by oxidative stress is independent of the intrinsic pathway and dependent on cathepsins H. K. Baumgartner et al., (2007) Am J Physiol Gastrointest Liver Physiol.).

J774 cells = test: Viability / anti-inflammatory activity in J774 cells stimulated with LPS; format: cell-based
Experimental: as §1

ARPE-19 cells [4] = test: LDH release, 50 μM FeSO4 for 5 hours then 20 h post-treatment; format: cell-based; settings: then 20 hours with compound
Experimental: as §4

[5] = Average hydrodynamic diameter and polydispersity index by DLS / photo-correlation spectroscopy; format: physicochemical; settings: DLS in PBS, pH 7.4; calixarene nanoaggregates
Experimental: The average diameter and the polydispersity index (PDI) of the SLN-A systems prepared were determined by photo-correlation spectroscopy (PCS) using a Zetasizer Nano ZSP (Malvern Instrument).
The average diameter and the polydispersity index (PDI) of the NLC-B systems coated with INU-EDA and chitosan prepared were determined by photo-correlation spectroscopy (PCS) using a Zetasizer Nano ZSP (Malvern Instrument).
as §2, §3

SIRC corneal cells = test: Cytotoxicity on SIRC corneal cells; format: cell-based; settings: SIRC corneal (epithelial) cells
Experimental: as §5

[6] = tested on: Uveitis induced in Lewis rats; test: Uveitis model induced by LPS endotoxin, topical administration; format: in vivo; settings: 16 and 72 hours after LPS injection
Experimental: With the aim of verifying the effectiveness of the calixarene system loaded with the active ingredient to the eye site of interest, an experiment was conducted in vivo with an Uveitis model. Uveitis was induced in 160-180 g Lewis rats by single subcutaneous injection in the hind paw of 200 ìg of the LPS endotoxin from Salmonella Minnesota diluted in 0.2 mL PBS, pH 7.4. The control group received only 0.2 mL of PBS in the hind paw. […] The eyes were enucleated for histological and immunohistochemical analysis. The aqueous humor was also taken for protein dosing.

J774 macrophages = test: Cytotoxicity on J774 macrophages; format: cell-based
Experimental: as §5

[7] = Degradation of curcumin in PBS and serum-free medium; format: physicochemical
[8] = cited from earlier work
PARP-1 protein = test: Western blotting of PARP-1 after H2O2 and post-treatment; format: cell-based; settings: samples treated with H2O2, post-treatment
Experimental: Lysates of retinal cells exposed to post-treatment with the INUC8PEG system, empty or conjugated with silibinin, were analyzed by western blotting for the expression of the PARP-1 protein, a poly (ADP-ribose) polymerase of 116 kDa involved in DNA repair in response to environmental stress (Calcium Overload Is A Critical Step In Programmed Necrosis Of Arpe-19 Cells Induced By High-Concentration H2O2 Guang-Yu Li et al., (2010) Biomedical And Environmental Sciences). In vivo and in vitro, PARP-1 is processed by Caspase 3 and Caspase 7 with the formation of a 24 kDa DNA-binding domain and an 89 kDa catalytic domain that participates in the apoptosis (Importance of Poly (ADP-ribose) Polymerase and Its Cleavage in Apoptosis F. J Oliver et al., (1998) J. Biol. Chem.).

[9] = 20 h incubation, cells not exposed to FeSO4
[10] = pre-treated 20 h, then FeSO4 (50 μM)

Row | Compound | levels of COX-2 (cyclooxygenase 2 (COX-2)) | release of LDH (ARPE-19 cells [2]; [9]) | release of LDH (ARPE-19 cells [2]; [10]) | levels of iNOS [3] | expression levels of cathepsin D (48 kDa band) (cathepsin D) | protection against insult (LDH release) (ARPE-19 cells [4]) | ocular inflammation / histologic damage [6] | protein levels in the aqueous humor [6] | other results
1 | CCCCCCCCCCCCOc1c2cc(C[N+](C)(C)CCO)cc1Cc1cc(C[N+](C)(C)CCO)cc(c1OCCCCCCCCCCCC)Cc1cc(C[N+](C)(C)CCO)cc(c1OCCCCCCCCCCCC)Cc1cc(C[N+](C)(C)CCO)cc(c1OCCCCCCCCCCCC)C2 [compound 1] | reduces significantly and in a dose-dependent manner | do not significantly change the release of LDH | an effect not observed | reduces significantly and in a dose-dependent manner | increases the expression levels of cathepsin D | individually able to protect from the redox status alteration | the degree of inflammation was not reduced | did not result in a reduction in the protein levels | Potential ζ [1]: 24 mV; biocompatibility (ARPE-19 retinal cells; ARPE-19 / ARPE retinal cells): good biocompatibility; toxicity (ARPE-19 retinal cells; concentrations 0.01-1 μM, incubated for 20 hours): caused no toxicity; cell viability following stimulation with LPS (J774 cells; LPS 10 μg/mL for 24 hours, 2-hour pretreatment): able to restore the cell viability; anti-inflammatory activity, rank order (J774 cells; macrophages subjected to inflammatory stress with LPS): calixarene loaded with curcumin>>calixarene>>curcumin alone; PDI [5]: 0.29; Z-average [5]: 44.3 nm; biocompatibility (SIRC corneal cells): good biocompatibility; biocompatibility (J774 macrophages): good biocompatibility; protective effect towards curcumin ([7]; PBS as a solvent): protects curcumin
2 | COc1cc(/C=C/C(=O)CC(=O)/C=C/c2ccc(O)c(OC)c2)ccc1O [curcumin, diferuloylmethane] | reduces significantly and in a dose-dependent manner |  |  | reduces significantly and in a dose-dependent manner |  |  | significantly decreased the histologic damage | most effectively determined the reduction of proteins | degradation ([7]; in 30 min, 0.1 M PBS and serum-free medium): 80-90% and 90%
3 | Silibinin [reference compound] |  | reduces the release of LDH | an effect not observed |  | increases the expression levels of cathepsin D | individually able to protect from the redox status alteration | decreased but not significant ocular inflammation | a trend but not significant | solubility in water [8]: 430 µg/mL; inhibition of apoptosis induced by oxidative damage (PARP-1 protein): reduces the apoptotic process, however with less efficiency than the conjugated carrier
